Measurements published in article PMC9352027, “Targeting lipid biosynthesis pathways for hepatitis B virus cure” (PLoS ONE, 2022).

Assays:
[1] = two hours post dosing
Method: For the ACC inhibitor efficacy study, HBV-infected mice were randomized into two different treatment groups based on body weight, blood h-Alb, and serum HBV DNA concentrations. All mice had blood h-Alb levels above 12 mg/mL and serum HBV DNA levels above 2.5x10^7 copies/mL. Mice received an oral dose of 10 mg/kg ACC inhibitor or dosing vehicle (vehicle control) once daily for 29 days. ACC inhibitor was dosed in 0.5% sodium carboxymethylcellulose (medium viscosity), 1% w/v ethanol, 98.5% w/v 50 mM Tris buffer, pH 8 in reverse osmosis water (or equivalent). […]
(§1) Whole blood h-Alb was determined using (BioMajestyTM Series JCA-BM6050, JEOL Ltd., Tokyo, Japan). Serum human alanine aminotransferase (h-ALT1) concentration was determined based on Enzyme-Linked ImmunoSorbent Assay (ELISA) developed by Institute of Immunology Co., Ltd. (Tokyo, Japan). […] Serum HBsAg and HBeAg concentration were determined by SRL, Inc. (Tokyo, Japan) based on Chemiluminescent Enzyme Immuno Assay (CLEIA) developed by Fujirebio. […] RNA was isolated from RNAlater®-immersed liver samples with RNeasy kit following manufacturer’s instructions (Qiagen). qRT-PCR on the targeted genes was evaluated by Taqman (Assay IDs Hs04984975_m1 (SREBF1), Hs01682761_m1 (SCD), Hs01005622_m1 (FASN), Hs01046047_m1 (ACACA) and normalized to GAPDH endogenous control (Assay ID 4310884E).

HBV genotype C = assay: ACC inhibitor efficacy study in HBV-infected chimeric humanized mice: serum viral markers; assay type: in vivo, human liver-chimeric uPA/SCID mice; conditions: 10 mg/kg oral once daily for four weeks, throughout the study
Method: (§2) For the ACC inhibitor efficacy study, HBV-infected mice were randomized into two different treatment groups based on body weight, blood h-Alb, and serum HBV DNA concentrations. All mice had blood h-Alb levels above 12 mg/mL and serum HBV DNA levels above 2.5x10^7 copies/mL. Mice received an oral dose of 10 mg/kg ACC inhibitor or dosing vehicle (vehicle control) once daily for 29 days. ACC inhibitor was dosed in 0.5% sodium carboxymethylcellulose (medium viscosity), 1% w/v ethanol, 98.5% w/v 50 mM Tris buffer, pH 8 in reverse osmosis water (or equivalent). Terminal livers were collected, weighed, and separated into pieces that were flash frozen in liquid nitrogen or immersed in RNAlater solution (Life Technologies, Carlsbad, CA).
as §1
(§3) Using the same batch of human hepatocytes and HBV virus used for the metabolomic and RNAseq analyses, mice (n = 7/group) were dosed orally eight weeks post HBV infection with vehicle or 10 mg/kg ACC inhibitor once daily for four weeks. HBV viral markers (HBsAg, HBeAg, and HBV DNA) and liver toxicity markers (ALT, h-Alb) were measured weekly (Fig 5A). On-target activity was evaluated by monitoring changes in triglycerides and liver mRNA expression levels of genes in the targeted pathway (Fig 5A).

[2] = system: triglyceride accumulation in HepG2 cells; design: method as in PMID 32376414, doi:10.1002/hep.31579; conditions: read-out: palmitic acid-induced triglyceride accumulation EC50; cited from earlier work
[3] = system: HBsAg secretion in HBV-infected HepG2-NTCP cells; assay: microbe, parasite or virus in culture; assay type: cell-based, Hepatitis B virus genotype D (AD38); conditions: HBV-infected HepG2-NTCP cells
Method: (§4) Production of wild-type HBV virions from HepAD38 cells was performed as previously described. HepG2-NTCP cells were bulk plated on collagen coated flasks at a density of 6x10^6 cells/ T175 flask. Following a 3-day incubation at 37°C, cells were infected with genotype D (AD38) virus at […] in the presence of 4% PEG8000 and 2.5% DMSO. HepG2-NTCP cells were washed 3 times with OPTI-MEM and maintained in Dulbecco’s modified Eagle’s medium (DMEM) supplemented with 2% FBS and 2.5% DMSO for the following 4 days. HBV-infected HepG2-NTCP cells were trypsinized, resuspended in DMEM supplemented with 2% FBS and 1% DMSO, and seeded onto serially diluted small molecule inhibitors at a 0.5% final DMSO concentration (S1 Table) in 384-well collagen coated plates at a density of 20,000 cells/well for 3 additional days.
(§5) Cell culture supernatant (3 μL) was transferred to two 1536-well plates and HBsAg and HBeAg levels subsequently measured by HTRF (Cisbio). HBsAg was measured using Terbium conjugated (XTL-17) and D2 receptor conjugated (XTL19) anti-HBsAg antibodies, while HBeAg was measured using Terbium conjugated (GWB-F19420, Genway Biotech) and D2 receptor conjugated (GWB-24DEF, Genway Biotech) anti-HBeAg antibodies. […] was measured using an Envision plate reader at emissions of 665 nm and 615 nm. The ratio of 665/615 was used to plot compound dose response curves and EC50 values were calculated from the fit of the dose−response curves to a four-parameter equation.
(§6) (A) Schematic overview of the pathways involved in lipid biosynthesis, such as DNL, TG esterification and cholesterol biosynthesis. […] (B-D) HepG2-NTCP cells infected with HBV for three days were treated with selected compounds in an eight-point dose response. After three days of treatment, extracellular HBsAg and HBeAg levels as well as cell viability were measured.

[4] = system: HBeAg in HBV-infected HepG2-NTCP cells; assay: microbe, parasite or virus in culture; assay type: cell-based, Hepatitis B virus genotype D (AD38); conditions: HBV-infected HepG2-NTCP cells, three days of treatment, extracellular; read-out: HBeAg, EC50
Method: as §4, §5, §6

DNL in HepG2 cells = system: DNL in HepG2 cells; design: method as in PMID 32376414, doi:10.1002/hep.31579; conditions: cited from earlier work
[5] = system: HBV-infected HepG2-NTCP cells; assay: Cell viability by CellTiter Glo; assay type: cell-based, human; conditions: three days of treatment
Method: as §4
Cells were analyzed for cell viability by addition of CellTiter Glo (Promega) to the assay plates and analyzed using an Envision plate reader (Perkin Elmer). CC50 values were calculated from the fit of the dose−response curves to a four-parameter equation. All CC50 values represent geometric mean values of a minimum of four determinations.
as §6

[6] = assay type: in vivo, human liver-chimeric uPA/SCID mice; conditions: 10 mg/kg oral once daily for four weeks
Method: All animal work was performed by PhoenixBio Co, Ltd (Higashi-Hiroshima City, Japan). Detailed observations of general condition and individual body weights were conducted once daily throughout the in-life phase. All animal protocols were performed in accordance with the Guide for the Care and Use of Laboratory Animals and approved by the Animal Welfare Committee of Phoenix Bio Co., Ltd. All mice were housed individually and maintained in accordance with the Animal Ethics Committee of PhoenixBio (resolution #2518 and 2552). All surgery was performed under isoflurane anesthesia, and all efforts were made to minimize suffering. On Day 17, Animal ID No. 107 (vehicle-treated) was found dead.

ACC = assay: On-target activity: serum and liver triglycerides and liver mRNA by qRT-PCR; assay type: in vivo, human liver-chimeric uPA/SCID mice; conditions: 10 mg/kg oral once daily, versus vehicle
Method: as §2
Whole blood h-Alb was determined using (BioMajestyTM Series JCA-BM6050, JEOL Ltd., Tokyo, Japan). Serum human alanine aminotransferase (h-ALT1) concentration was determined based on Enzyme-Linked ImmunoSorbent Assay (ELISA) developed by Institute of Immunology Co., Ltd. (Tokyo, Japan). The real-time detection PCR to measure the serum HBV DNA concentration was performed using the KUBIX HBV qPCR Kit (KUBIX Inc.) and CFX96 Touch™ Real-Time PCR Detection System. […] Serum HBsAg and HBeAg concentration were determined by SRL, Inc. (Tokyo, Japan) based on Chemiluminescent Enzyme Immuno Assay (CLEIA) developed by Fujirebio. Serum and intrahepatic triglycerides analysis were performed by Skylight Biotech Inc. (Akita, Japan). Terminal plasma and liver were collected 2-hours after ACC inhibitor dose for PK analysis which was performed by Charles River Laboratories (Wilmington, MA). RNA was isolated from RNAlater®-immersed liver samples with RNeasy kit following manufacturer’s instructions (Qiagen). qRT-PCR on the targeted genes was evaluated by Taqman (Assay IDs Hs04984975_m1 (SREBF1), Hs01682761_m1 (SCD), Hs01005622_m1 (FASN), Hs01046047_m1 (ACACA) and normalized to GAPDH endogenous control (Assay ID 4310884E).
as §3

[7] = system: HBsAg secretion in Hep3B cells; design: method as in PMID 14517078; conditions: depletion of cellular cholesterol; cited from earlier work

Row | Structure (SMILES) | Liver exposure over protein-adjusted EC50 (paEC50) ([1]; paEC50 based on HepG2-serum free-DNL assay) [fold] | Liver exposure ([1]; 10 mg/kg oral once daily, HBV-infected chimeric humanized mice) [nM] | reduction in serum HBV DNA levels (HBV genotype C) | reduction in serum HBeAg levels (HBV genotype C) | reduction in serum HBsAg levels (HBV genotype C) | EC50 [2] [nM] | selectivity HBsAg versus HBeAg [3] | inhibition of HBsAg secretion ([3]; maximal (up to)) | EC50 ([3]; three days of treatment, extracellular, read-out: HBsAg, EC50) [nM] | EC50 [4] [µM] | EC50 (DNL in HepG2 cells) [nM] | CC50 [5] [µM] | toxicity based on body weight change, serum ALT, and h-Alb levels [6] | increase in serum triglycerides (ACC; day 17 of treatment) [%] | reduction in liver triglycerides (ACC; day 29 of treatment) [%] | liver mRNA expression level of ACACA (ACC; qRT-PCR) | liver mRNA expression level of FASN (ACC; qRT-PCR) | liver mRNA expression level of SCD (ACC; qRT-PCR) | liver mRNA expression level of SREBF1 (ACC; qRT-PCR) | HBsAg secretion [7]
1 | COc1ccccc1[C@H](Cn1c(=O)n(C(C)(C)C(=O)O)c(=O)c2c(C)c(-c3ncco3)sc21)O[C@H]1CC[C@@H](O)CC1 [ACC inhibitor, 2-(1-((R)-2-(((1s,4S)-4-hydroxycyclohexyl)oxy)-2-(2-methoxyphenyl)ethyl)-5-methyl-6-(oxazol-2-yl)-2,4-dioxo-1,4-dihydrothieno[2,3-d]pyrimidin-3(2H)-yl)-2-methylpropanoic acid] | 4.5 | 740 | no reduction | no reduction | no reduction | 23 | inhibition of HBeAg but at a higher concentration than HBsAg | up to 80% | 29 | 9.6 | 6.6 | > 10 | no evidence of toxicity | 30 | 40 | statistically significant increase | statistically significant increase | statistically significant increase | increased with ACC treatment albeit did not reach statistical significance | 
2 | CC[C@H](C)C(=O)O[C@H]1C[C@@H](C)C=C2C=C[C@H](C)[C@H](CC[C@@H]3C[C@@H](O)CC(=O)O3)[C@H]21 [lovastatin] |  |  |  |  |  |  |  |  |  |  |  |  |  |  |  |  |  |  |  | significantly reduced
